According to ChEMBL document CHEMBL4118026, “Limaol: A Polyketide from the Benthic Marine Dinoflagellate Prorocentrum lima” (J Nat Prod, 2017):

Assays:
Format in all cases: functional, cell-based
[1] = test system: HepG2; assay: Cytotoxicity against human HepG2 cells after 24 hrs by MTT assay; conditions: HepG2, 24 h
[2] = test system: HCT-116; assay: Cytotoxicity against human HCT116 cells after 24 hrs by MTT assay; conditions: HCT-116, 24 h
[3] = test system: N2a; assay: Cytotoxicity against mouse Neuro2a cells after 24 hrs by MTT assay

SMILES	IC50 [1]	IC50 [2]	IC50 [3]
C=C(CC(=C)CC(=C)C[C@H]1CC(C)=C[C@@]2(C[C@@H](O)[C@H]3O[C@H](C[C@@H](O)CC(=C)C[C@H]4O[C@H](C/C=C/CCO)C[C@@H](O)[C@@H]4O)[C@H](O)[C@@H](O)[C@@H]3O2)O1)CC(=C)C[C@@H](C)C[C@@H](C)O	3.7 µM	7.3 µM	9.6 µM
C=C1[C@@H](O)[C@@H]2O[C@]3(CC[C@H](/C=C/[C@@H](C)[C@@H]4CC(C)=C[C@@]5(O[C@H](C[C@@](C)(O)C(=O)O)CC[C@H]5O)O4)O3)CC[C@H]2O[C@@H]1[C@@H](O)C[C@H](C)[C@H]1O[C@@]2(CCCCO2)CC[C@H]1C [OKADAIC ACID]	0.54 µM	0.67 µM	0.85 µM
